Assay results as given in PubChem BioAssay AID1918953 (Molecular Pharmacology Branch, DTP, NCI, 2023).

Tested on: MDA-MB-231 complex spheroid viability
Test: Anticancer human tumor MDA-MB-231/ATCC cell line growth inhibition;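 further: drug exposure lasted 7 days starting on day 3 of spheroid growth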
Conditions: for IC50: curve of first compound; for viability, T/C: stronger effect = lower value
Summary of the method: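 Drug combinations with the LSD1 inhibitor iadademstat tested on tumor cells co-cultured as spheroids with endothelial cells and mesenchymal stem cells. Concentrations descended in half-log increments from clinical Cmax or 10 microM.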

[1] = second compound 0.1 µM, first compound 0.00949 µM
[2] = second compound 0.1 µM, first compound 0.03 µM
[3] = second compound 0.1 µM, first compound 0.0949 µM
[4] = second compound 0.1 µM, first compound 0.3 µM
[5] = second compound 0.1 µM, first compound 0.949 µM
[6] = second compound 0.1 µM, first compound 3 µM
[7] = second compound 0.316 µM, first compound 0.00949 µM
[8] = second compound 0.316 µM, first compound 0.03 µM
[9] = second compound 0.316 µM, first compound 0.0949 µM
[10] = second compound 0.316 µM, first compound 0.3 µM
[11] = second compound 0.316 µM, first compound 0.949 µM
[12] = second compound 0.316 µM, first compound 3 µM
[13] = second compound 1 µM, first compound 0.00949 µM
[14] = second compound 1 µM, first compound 0.03 µM
[15] = second compound 1 µM, first compound 0.0949 µM
[16] = second compound 1 µM, first compound 0.3 µM
[17] = second compound 1 µM, first compound 0.949 µM
[18] = second compound 1 µM, first compound 3 µM
[19] = second compound 3.16 µM, first compound 0.00949 µM
[20] = second compound 3.16 µM, first compound 0.03 µM
[21] = second compound 3.16 µM, first compound 0.0949 µM
[22] = second compound 3.16 µM, first compound 0.3 µM
[23] = second compound 3.16 µM, first compound 0.949 µM
[24] = second compound 3.16 µM, first compound 3 µM
[25] = second compound 10 µM, first compound 0.00949 µM
[26] = second compound 10 µM, first compound 0.03 µM
[27] = second compound 10 µM, first compound 0.0949 µM
[28] = second compound 10 µM, first compound 0.3 µM
[29] = second compound 10 µM, first compound 0.949 µM
[30] = second compound 10 µM, first compound 3 µM

Cn1ncnc1C1c2n[nH]c(=O)c3cc(F)cc(c23)NC1c1ccc(F)cc1 (stereo not given) + NC1CCC(NC2CC2c2ccccc2)CC1
IC50 (second compound 0.1 µM): > 100 nM | IC50 (second compound 0.316 µM): > 100 nM | IC50 (second compound 1 µM): > 100 nM | IC50 (second compound 3.16 µM): > 100 nM | IC50 (second compound 10 µM): < 0.316 nM | viability, T/C (second compound 0.1 µM, first compound 0.000316 µM): 95.7% | viability, T/C (second compound 0.1 µM, first compound 0.001 µM): 97.2% | viability, T/C (second compound 0.1 µM, first compound 0.00316 µM): 92.5% | viability, T/C (second compound 0.1 µM, first compound 0.01 µM): 81.9% | viability, T/C (second compound 0.1 µM, first compound 0.0316 µM): 80.4% | viability, T/C (second compound 0.1 µM, first compound 0.1 µM): 78.7% | viability, T/C (second compound 0.316 µM, first compound 0.000316 µM): 95.4% | viability, T/C (second compound 0.316 µM, first compound 0.001 µM): 95.6% | viability, T/C (second compound 0.316 µM, first compound 0.00316 µM): 84.6% | viability, T/C (second compound 0.316 µM, first compound 0.01 µM): 80.7% | viability, T/C (second compound 0.316 µM, first compound 0.0316 µM): 77.7% | viability, T/C (second compound 0.316 µM, first compound 0.1 µM): 75.2% | viability, T/C (second compound 1 µM, first compound 0.000316 µM): 92.3% | viability, T/C (second compound 1 µM, first compound 0.001 µM): 89.9% | viability, T/C (second compound 1 µM, first compound 0.00316 µM): 87.8% | viability, T/C (second compound 1 µM, first compound 0.01 µM): 81.3% | viability, T/C (second compound 1 µM, first compound 0.0316 µM): 72.2% | viability, T/C (second compound 1 µM, first compound 0.1 µM): 70.7% | viability, T/C (second compound 3.16 µM, first compound 0.000316 µM): 70.8% | viability, T/C (second compound 3.16 µM, first compound 0.001 µM): 68.9% | viability, T/C (second compound 3.16 µM, first compound 0.00316 µM): 64.5% | viability, T/C (second compound 3.16 µM, first compound 0.01 µM): 60.4% | viability, T/C (second compound 3.16 µM, first compound 0.0316 µM): 59.1% | viability, T/C (second compound 3.16 µM, first compound 0.1 µM): 60.9% | viability, T/C (second compound 10 µM, first compound 0.000316 µM): 48.3% | viability, T/C (second compound 10 µM, first compound 0.001 µM): 50.3% | viability, T/C (second compound 10 µM, first compound 0.00316 µM): 48.9% | viability, T/C (second compound 10 µM, first compound 0.01 µM): 42.2% | viability, T/C (second compound 10 µM, first compound 0.0316 µM): 45.9% | viability, T/C (second compound 10 µM, first compound 0.1 µM): 44.6%

NS(=O)(=O)OCC1CC(n2ccc3c(NC4CCc5ccccc54)ncnc32)CC1O (stereo not given) + NC1CCC(NC2CC2c2ccccc2)CC1
IC50 (second compound 0.1 µM): 285 nM | IC50 (second compound 0.316 µM): 280 nM | IC50 (second compound 1 µM): 244 nM | IC50 (second compound 3.16 µM): 169 nM | IC50 (second compound 10 µM): 48.6 nM | viability, T/C [1]: 136% | viability, T/C [2]: 117% | viability, T/C [3]: 78.1% | viability, T/C [4]: 46.6% | viability, T/C [5]: 42.7% | viability, T/C [6]: 39.7% | viability, T/C [7]: 135% | viability, T/C [8]: 116% | viability, T/C [9]: 77% | viability, T/C [10]: 47.6% | viability, T/C [11]: 40.3% | viability, T/C [12]: 38.7% | viability, T/C [13]: 124% | viability, T/C [14]: 107% | viability, T/C [15]: 73.4% | viability, T/C [16]: 42.2% | viability, T/C [17]: 40.6% | viability, T/C [18]: 36.8% | viability, T/C [19]: 100% | viability, T/C [20]: 87.2% | viability, T/C [21]: 59.7% | viability, T/C [22]: 40.2% | viability, T/C [23]: 33.4% | viability, T/C [24]: 31.3% | viability, T/C [25]: 69.7% | viability, T/C [26]: 56.8% | viability, T/C [27]: 40.4% | viability, T/C [28]: 32.7% | viability, T/C [29]: 28.1% | viability, T/C [30]: 28.8%

O=C(C=Cc1cccc(S(=O)(=O)Nc2ccccc2)c1)NO + NC1CCC(NC2CC2c2ccccc2)CC1
IC50 (second compound 0.1 µM): 113 nM | IC50 (second compound 0.316 µM): 106 nM | IC50 (second compound 1 µM): 66.2 nM | IC50 (second compound 3.16 µM): 21.9 nM | IC50 (second compound 10 µM): < 9.49 nM | viability, T/C [1]: 90.7% | viability, T/C [2]: 75.7% | viability, T/C [3]: 53% | viability, T/C [4]: 30.5% | viability, T/C [5]: 13.7% | viability, T/C [6]: 0.59% | viability, T/C [7]: 86.3% | viability, T/C [8]: 69.6% | viability, T/C [9]: 53.5% | viability, T/C [10]: 30.8% | viability, T/C [11]: 14.1% | viability, T/C [12]: 1.38% | viability, T/C [13]: 79.1% | viability, T/C [14]: 61.8% | viability, T/C [15]: 43.6% | viability, T/C [16]: 30.3% | viability, T/C [17]: 11.3% | viability, T/C [18]: 0.68% | viability, T/C [19]: 61.4% | viability, T/C [20]: 45.3% | viability, T/C [21]: 31% | viability, T/C [22]: 20.8% | viability, T/C [23]: 6.19% | viability, T/C [24]: 0.34% | viability, T/C [25]: 39.8% | viability, T/C [26]: 29.8% | viability, T/C [27]: 17.9% | viability, T/C [28]: 13.9% | viability, T/C [29]: 3.39% | viability, T/C [30]: 0.33%
